Source: patent publication US20240158339A1, “TYRAMINE CONTAINING HYDROXYCINNAMIC ACID AMIDE DERIVATIVES AND METHODS OF USE THEREOF” (Brightseed, Inc., priority 2018, published 2024)

Tests used:
HepG2 cells = experiment: Lipid clearance (steatosis assay) in HepG2 cells; format: cell-based; settings: HepG2 liver cells, 20 μM
Experimental: Lipid Clearance in HepG2 and T6PNE Cells (Steatosis Assay). The steatosis assay was carried out as described (Kiselyuk, et al. (2012) Chem. Biol. 19(7):806-818) with the exception of the drug concentration, which was 20 μM for N-trans-caffeoyltyramine with 0.25 mM palmitate in HepG2 cell lines, and 10 μM of either N-trans-caffeoyltyramine, N-trans-caffeoyltyramine, or p-coumaroyltyramine, with 0.25 mM palmitate in T6PNE cell lines. Steatosis was assessed using the Oil Red O Method for Fats kits (Poly Scientific; Warrington, PA), per manufacturer's guidelines. Briefly, frozen tissue slides or fixed cells were incubated in neat propylene glycol for 2 minutes and Oil Red O solution for […] for slides or 1 hour for fixed cells, differentiated in 85% propylene glycol solution for 1 minute, washed twice with distilled water and stained in Hematoxylin of 10 seconds. Slides were mounted with glycerin jelly mounting medium.

HNF4α = target: T1, HNF4α (Homo sapiens, UniProt P41235); experiment: Insulin promoter activity assay (HNF4α assay) in T6PNE cells; format: cell-based
T1 construct: T6PNE cells (Kiselyuk, et al. (2012) Chem. Biol. 19(7):806-818; Kiselyuk, et al. (2010) J. Biomol; endogenous in cells; host or cells: T6PNE cells
T1 sequence (P41235 1-474): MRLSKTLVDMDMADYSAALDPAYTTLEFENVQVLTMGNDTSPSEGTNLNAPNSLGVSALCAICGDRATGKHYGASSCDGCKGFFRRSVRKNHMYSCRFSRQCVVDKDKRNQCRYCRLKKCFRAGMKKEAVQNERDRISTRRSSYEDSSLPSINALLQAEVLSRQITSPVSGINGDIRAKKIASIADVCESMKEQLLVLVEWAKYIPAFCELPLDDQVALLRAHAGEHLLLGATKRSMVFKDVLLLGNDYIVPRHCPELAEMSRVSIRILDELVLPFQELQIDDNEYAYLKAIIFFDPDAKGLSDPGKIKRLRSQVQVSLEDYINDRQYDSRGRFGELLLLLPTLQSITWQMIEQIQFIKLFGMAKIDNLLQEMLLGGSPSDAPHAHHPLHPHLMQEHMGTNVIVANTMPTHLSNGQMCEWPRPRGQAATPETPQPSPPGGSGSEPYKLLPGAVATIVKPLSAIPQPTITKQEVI
Experimental: Insulin Promoter Activity. T6PNE cells (Kiselyuk, et al. (2012) Chem. Biol. 19(7):806-818; Kiselyuk, et al. (2010) J. Biomol. Screen 15(6):663-70) are seeded at 2000 cells per well in 384-well tissue culture plates in the presence of 1 μM tamoxifen and 0.03 mM palmitate. After a 24-hour incubation, a compound of the invention is added to the cells. Forty-eight hours after compound addition, cells are fixed in 4% paraformaldehyde and stained with DAPI. Blue (DAPI) and green (human insulin promoter driving GFP) channels are imaged.
Inhibition of HNF4α GFP Expression. Using the insulin promoter assay described herein, activity of HNF4α was assessed in the presence of BI-6015 (0, 2.5, 5 μM), a known antagonist of HNF4α (Kiselyuk, et al. (2012) Chem. Biol. 19(7):806-818), in combination with N-trans-caffeoyltyramine (0, 5, 10, 20 μM).
Given the role of HNF4α in maintaining a health metabolism in humans, test compounds were screened for activity as HNF4α agonists (either direct or indirect effects). Using a known insulin promoter-reporter assay Kiselyuk and colleagues (2010. J. Biomol. Screen 15(6):663-70) screened a library of compounds for activity to promote insulin activation. […] The OTC promoter is known to be responsive to HNF4α in transient transfection assays (Inoue, et al. (2002) J. Biol. Chem. 277:25257-65).
Plant compounds in the top 10th percentile of similarity to the 18 target structures were selected and compounds predicted to be potential agonists of HNF4α activity given their chemical structural features were screened in the HNF4α assay.

[1] = Hepatic microsome stability assay, mouse; format: in vitro ADME; settings: for % Remaining: mouse microsomes
Experimental: (§1) Hepatic Microsome Assay. Hepatic microsomes stability assays were performed in accordance with known methods (Peddibhotla, et al. (2013) ACS Med. Chem. Lett. 4:846-851). Briefly, 3 μL of 25 μM compound solution in acetonitrile were incubated with 123 μL of mouse, human or rat liver microsomes (Xenotech, Kansas City, KS). After preincubation at 37° C. for 10 minutes, enzyme reactions were initiated by adding 120 !at of NADPH-generating system (2 mM NADP+, 10 mM glucose-6-phosphate, 0.4 U/ml glucose-6-phosphate dehydrogenase, and 5 mM MgCl2) in the presence of 100 mM potassium phosphate buffer (pH 7.4). […] The microsomal concentrations used were 1.0 mg/mL. Compounds were incubated in microsomes for 0, 5, 15, 30 and 60 minutes. The reactions were stopped by the addition of ice cold ACN and the reaction mixtures were centrifuged at 10,000 g for 10 minutes before the supernatant was removed for analysis. A 10 μL portion of the resulting extract was injected on a Thermo HPLC system equipped with PAL CTC plate sampler (96-well plate), Dionex Ultimate 3000 binary pump (flow rate at 0. 600 mL/min), Dionex Ultimate 3000 thermostatted column compartment (temperature at 40° C.), Thermo Endura Mass Spectrometer (ESI source), using a Thermo Scientific Accucore C18 (2.6 μM, 2.1×50 mm) column. A gradient was run starting at 95% H2O (0.1% formic acid) and 5% ACN (0. 1% formic acid) during the first 0. 5 min, then under gradient condition of 5-100% ACN (0.1% formic acid) from minute 0. 5 to 3.5, finishing at 95% H2O (0.1% formic acid) and 5% ACN (0.1% formic acid) over 0.5 min, with another 1 min at 95:5 to re-equilibrate.

[2] = Hepatic microsome stability assay, human; format: in vitro ADME
Experimental: as §1

O=C(/C=C/c1ccc(O)c(O)c1)NCCc1ccc(O)cc1 [N-trans-caffeoyltyramine]
clearing of fats, Oil Red O staining (HepG2 cells): capable of clearing harmful fats from the liver
accumulation of fats (HepG2 cells; 0.25 mM palmitate): inhibited accumulation of fats
potency in activating HNF4α relative to Alverine (HNF4α; FIG. 1, dose-response, insulin promoter activity): roughly an order-of-magnitude more potent than Alverine
HNF4α activation / bioactivity (screening result in words) (HNF4α; HNF4α assay, screening and SAR statements): able to act as HNF4α modulators
half-life at 1 μM ([1]; liver microsomes, pH 7.4, 1 μM): 0.8 min
microsomal CLint at 1 μM ([1]; liver microsomes, pH 7.4, 1 μM, read-out: Clearance Rate): 1760 µL/min/mg
half-life at 10 μM ([1]; liver microsomes, pH 7.4, 10 μM): 6.9 min
microsomal CLint at 10 μM ([1]; liver microsomes, pH 7.4, 10 μM, read-out: Clearance Rate): 200 µL/min/mg
% Remaining ([1]; 1 μM): 0.4%
% Remaining ([1]; 10 μM): 0.3%
apparent major biotransformation pathway ([2]; human microsomes): oxidation of the left-hand aryl ring
% Remaining ([2]; human microsomes, 1 μM): 55.3%
% Remaining ([2]; human microsomes, 10 μM): 85.4%
stability in hepatic microsomes ([2]; human, rat and mouse hepatic microsomes): stable
half-life at 1 μM ([2]; liver microsomes, pH 7.4, human microsomes, 1 μM): 77.3 min
microsomal CLint at 1 μM ([2]; liver microsomes, pH 7.4, human microsomes, 1 μM, read-out: Clearance Rate): 17.9 µL/min/mg
half-life at 10 μM ([2]; liver microsomes, pH 7.4, human microsomes, 10 μM): 262 min
microsomal CLint at 10 μM ([2]; liver microsomes, pH 7.4, human microsomes, 10 μM, read-out: Clearance Rate): 5.3 µL/min/mg
